Test results published in patent publication US12492182B2, “Hydroxytriazine compounds and pharmaceutical use thereof” (Japan Tobacco Inc., priority 2015, dated 2025).
Read-outs that look alike come from different tables or passages of the source.

How the values were obtained:
[1] = biological target: T1, human mPGES-1 (Homo sapiens, UniProt O14684); experiment: Evaluation of human mPGES-1 enzyme inhibitory activity (HTRF measurement of PGE2); assay type: biochemical; details: IC50 value; microsome fraction of CHO-S cells expressing human mPGES-1, PGH2 substrate, PGE2 by HTRF; read-out: humans mPGES-1 enzyme inhibitory activity
T1 construct: made in house; host or cells: Chinese hamster ovary-derived cells (FreeStyle CHO-S), transient transfection of pcDNA3.1(+)/human mPGES-1; microsome fraction
T1 sequence (O14684 1-152): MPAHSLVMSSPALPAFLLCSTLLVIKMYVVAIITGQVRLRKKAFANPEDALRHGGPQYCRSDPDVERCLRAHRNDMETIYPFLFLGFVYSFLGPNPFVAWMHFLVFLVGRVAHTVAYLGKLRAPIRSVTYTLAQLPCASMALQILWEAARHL
Experimental: Experimental Example 1: Evaluation of Human mPGES-1 Enzyme Inhibitory Activity
The human mPGES-1 enzyme inhibitory activity of a test article was evaluated according to the report of Xu et al. (XU, D et al. MF63 [2-(6-chloro-1H-phenanthro[9,10-d]imidazol-2-yl)-isophthalonitrile], a selective microsomal prostaglandin E synthase-1 inhibitor relieves pyresis and pain in preclinical models of inflammation. J Pharmacol Exp Ther. September 2008, Vol. 326, No. 3, pages 754-763). The amount of PGE2 produced by human mPGES-1 in the presence of a test article was measured by the HTRF (homogeneous time resolved fluorescence) method, and the human mPGES-1 enzyme inhibitory activity of the test article was determined.
1) Preparation of Human mPGES-1 Expressing Cell Microsome Fraction
A DNA fragment containing human mPGES-1, which is added with a BamHI recognition cleavage sequence just before the translation initiation codon and an EcoRI recognition cleavage sequence just after the translation termination codon, was amplified by the PCR (Polymerase Chain Reaction) method using a human mPGES-1 expression plasmid DNA (pME-18S/iPGES-1) prepared in-house as a template. The purified DNA fragment was digested with BamHI and EcoRI, and ligated to pcDNA3.1(+) (Invitrogen, model number V790-20), similarly_digested with BamHI and EcoRI, by using a DNA Ligation kit ver. 2.1 (Takara Bio, model number 6022). The human mPGES-1 expression plasmid DNA was isolated from Escherichia coli DH5a (TOYOBO, model number DNA-903) transformed with the obtained ligation product. The base sequence of human mPGES-1 cloned to a vector was determined by the Dye Terminator method using BigDye Terminator v3.1 Cycle Sequencing Kit (Applied Biosystems, #4337455). The determined sequence was identical with the sequence of the protein translational region of human mPGES-1 (Accession number NM 004878) registered in the NCBI Reference Database.
Human mPGES-1 expression plasmid DNA was transfected into Chinese hamster ovary-derived cells (FreeStyle CHO-S Cell, Invitrogen, #R^800-07) by using a transgene reagent (FreeStyle MAX Reagent (Invitrogen, #16447-100)), and cultured with shaking (8% CO2, 37° C.) in a medium containing 8 mmol/L L-glutamine (GIBCO FreeStyle CHO Expression Medium, Invitrogen, #12651-022) for 48 hr.
The CHO-S cells were suspended in Homogenate Buffer (100 mmol/L potassium phosphate (pH 7.4), 250 mmol/L Sucrose, 100 mmol/L EDTA, complete EDTA free (Roche, #1873580)). Using an ultrasonic disruptor UD-201 (Tomy Seiko), the suspended cells were disrupted at output:3, duty cycle:50 for 30 seconds. The precipitate was removed by centrifugation (1,000×g, 5 min, 4° C.), and the supernatant was centrifuged (5,000×g, 10 min, 4° C.). The supernatant was further centrifuged (105,000×g, 60 min, 4° C.). The obtained precipitate was suspended in Resuspension Buffer (100 mmol/L potassium phosphate (pH 7.4), 250 mmol/L sucrose, 100 mmol/L EDTA, 10% glycerol) to give a microsome fraction.
The protein concentration of the microsome fraction was measured by the Bradford method (Protein Assay Kit, Bio-Rad). The microsome fraction was rapidly frozen in liquid nitrogen and preserved at −80° C. Human mPGES-1 in the microsome fraction was detected by Western Blot using rabbit anti-mPGES-1 polyclonal antibody (ThermoFisher Scientific, #PA1-10264).
2) Evaluation of Human mPGES-1 Enzyme Inhibitory Activity
A test article solution diluted with 0.1 mol/L potassium phosphate, pH 7.4 (hereinafter to be referred to as KPB) or DMSO (Nacalai Tesque, #13407-45) was added at 5 μL/well to 96 well V-bottom plate (Corning, #3363). The final DMSO concentration during the reaction was set to 2%(v/v). Furthermore, a microsome fraction of CHO-S cells expressing human mPGES-1, which was diluted with reduced GSH (12.5 mmol/L KPB solution, SIGMA, #G6529-25G) such that the protein concentration was 5 μg/mL, was added at 20 μL/well. […]

[2] = system: A549 cell; experiment: Evaluation of PGE2 production inhibitory action using A549 cell (IL-1β stimulated); assay type: cell-based, human
Experimental: Experimental Example 2: Evaluation of PGE2 Production Inhibitory Action Using A549 Cell
A549 cell (Japan Health Sciences Foundation Research Resources Bank), which is cell line derived from humans lung cancer, was suspended in assay medium (Ham's F-12K (Wako, #080-08565) containing 2% FBS (Hyclone Laboratories, #SH30910.03), 100 units/mL penicillin and 100 μg/mL streptomycin (Invitrogen, #15140-122)), the suspension was added at 2.5×10^4 cells/100 μL/well to 96 well flat-bottom plate (Corning, #353072), and the plate was left standing for 20 hr in a CO2 incubator set at 37° C. The test article was serially diluted with DMSO (Nacalai Tesque, #13407-45), and then 20-fold diluted with the assay medium to prepare a test article solution having a ten-fold concentration of the final concentration. The final DMSO concentration during the reaction was set to 0.5% (v/v). The medium was removed from the plate in which the cell was added, new assay medium was added at 160 μL/well to the plate, and the plate was left standing for 10 min in a CO2 incubator. Then, the test article solution was added at 20 μL/well to the plate, and the plate was left standing for 30 min in a CO2 incubator. Next, recombinant humans IL-1β (R&D Systems, #201-LB) as a stimulant to enhance PGE2 production due to increase of mPGES-1 mRNA expression was added at 20 μL/well (the final concentration was 1 ng/mL) to the plate, and the plate was left standing for 18 hr in a CO2 incubator. The supernatant was collected at 180 μL/well, and the PGE2 concentration was measured using Prostaglandin E2 assay (CISbio Bioassays, #62P2APEC) according to the manual. As the reference standard for analytical curve, PGE2 (Cayman Chemical, #14010) was used. Using EnVision 2104 (Perkin Elmer), the time-resolved fluorescence at 620 nm and 665 nm relative to the excitation light at 337 nm was measured. PGE2 concentration was extrapolated from the PGE2 analytical curve. Average of the PGE2 concentrations of the respectively-treated wells was used as the data.
The PGE2 production inhibitory activity (%) of the test article was calculated according to the following Formula 3. PGE2 production inhibitory activity(%)=(PGE2A−PGE2X)/(PGE2A−PGE2B)×100 [Formula 3] • PGE2A: PGE2 concentration of vehicle-treated well • PGE2B: PGE2 concentration of blank well (no addition of recombinant humans IL-1B) • PGE2X: PGE2 concentration of test article-treated well

[3] = Homo sapiens, A549, A549 cell, recombinant human IL-1β stimulation, read-out: cell PGE2 production inhibitory activity (IC50 value)
[4] = Homo sapiens, A549, 18 h, IC50 value, A549 cell, recombinant IL-1β 1 ng/mL, 18 hr, PGE2 in supernatant, read-out: cell PGE2 production inhibitory activity
[5] = A549 cell, recombinant human IL-1β stimulation, read-out: cell PGE2 production inhibitory activity (IC50 value)

Row | SMILES | IC50 [1] | IC50 [2, 3] | IC50 [2, 4] | IC50 [2, 5] | inhibition at 0.03 µM ([2]; Homo sapiens, A549 cell, IL-1β stimulation, at the highest concentration given (0.03 μM), read-out: cell PGE2 production inhibitory activity (%), printed in parentheses after the > bound)
1 | CCC(C)(CC)C(=O)NCc1ccc(Cl)c(-c2nc(O)nc(-c3cccc(C(C)C)c3)n2)c1 [Example 15] | 0.5 nM | – | 120 nM | – | –
2 | CC[C@@H](C)Oc1ccc(-c2nc(O)nc(-c3cc(CNC(=O)C(C)(C)C(F)(F)F)ccc3Cl)n2)cn1 [Example 42] | 1.3 nM | – | 7.9 nM | – | –
3 | COC1(C(=O)NCc2ccc(Cl)c(-c3nc(O)nc(-c4cccc(C(C)(C)C)c4)n3)c2)CCCCC1 [Example 24] | 1.6 nM | – | 8.2 nM | – | –
4 | CCCOc1ccc(-c2nc(O)nc(-c3cc(CNC(=O)C4(C(F)(F)F)CCCC4)ccc3Cl)n2)cn1 [Example 45] | 1.3 nM | – | 8 nM | – | –
5 | CO[C@](C)(C(=O)NCc1ccc(Cl)c(-c2nc(O)nc(-c3cccc(C4(C)CC4)c3)n2)c1)C(F)(F)F [Example 65] | 1.1 nM | 9.7 nM | – | – | –
6 | O=C(NCc1ccc(Cl)c(-c2nc(O)nc(-c3ccc(OC4CCC4)nc3)n2)c1)C1(C(F)(F)F)CCCCC1 [Example 60] | 0.4 nM | – | 8.3 nM | – | –
7 | CCC(C)(C)c1cccc(-c2nc(O)nc(-c3cc(CNC(=O)C(C)(C)C(F)(F)F)ccc3Cl)n2)c1 [Example 43] | 3.5 nM | – | 6.5 nM | – | –
8 | CCCCC(C)(C)C(=O)NCc1ccc(Cl)c(-c2nc(O)nc(-c3ccc(OCCC)nc3)n2)c1 [Example 47] | 2.1 nM | – | 100 nM | – | –
9 | CO[C@@](C)(C(=O)NCc1ccc(Cl)c(-c2nc(O)nc(-c3cccc(C(C)C)c3)n2)c1)C(F)(F)F [Example 74] | 1.3 nM | 29 nM | – | – | –
10 | CC(C)c1cccc(-c2nc(O)nc(-c3cc(CNC(=O)C4(F)CCCCC4)ccc3Cl)n2)c1 [Example 39] | 3.9 nM | – | 57 nM | – | –
11 | CC(C)c1cccc(-c2nc(O)nc(-c3cc(CNC(=O)C4(F)CC4)ccc3Cl)n2)c1 [Example 38] | 2.9 nM | – | 130 nM | – | –
12 | CCCOc1cccc(-c2nc(O)nc(-c3cc(CNC(=O)C(C)(C)C(F)(F)F)ccc3Cl)n2)c1 [Example 1] | 0.9 nM | – | 27 nM | – | –
13 | CCOc1cccc(-c2nc(O)nc(-c3cc(CNC(=O)C(C)(C)C(F)(F)F)ccc3Cl)n2)c1 [Example 9] | 0.7 nM | – | 37 nM | – | –

Now from value to compound, other results behind:

Row | IC50 [1] | IC50 [2, 3] | IC50 [2, 4] | IC50 [2, 5] | SMILES | inhibition at 0.03 µM ([2]; Homo sapiens, A549 cell, IL-1β stimulation, at the highest concentration given (0.03 μM), read-out: cell PGE2 production inhibitory activity (%), printed in parentheses after the > bound)
14 | 1.9 nM | 17 nM | – | – | CC(C)c1cc(-c2nc(O)nc(-c3cc(CNC(=O)C4(CF)CCCC4)ccc3Cl)n2)ccc1Cl [Example 95] | –
15 | 2.1 nM | 3.9 nM | – | – | CC(C)c1cccc(-c2nc(O)nc(-c3cc(CNC(=O)C(C)(C(F)(F)F)C(F)(F)F)ccc3Cl)n2)c1 [Example 90] | –
16 | 3.7 nM | 2.5 nM | – | – | CC1(c2cccc(-c3nc(O)nc(-c4cc(CNC(=O)C(C)(C(F)(F)F)C(F)(F)F)ccc4Cl)n3)c2)CC1 [Example 89] | –
17 | 1.7 nM | 11 nM | – | – | CC(C)(C)c1cccc(-c2nc(O)nc(-c3cc(CNC(=O)C4(CF)CCCCC4)ccc3Cl)n2)c1 [Example 99] | –
18 | 5.4 nM | – | – | 2.1 nM | CCC(OC)(C(=O)NCc1ccc(Cl)c(-c2nc(O)nc(-c3ccc(Cl)c(C(C)C)c3)n2)c1)C(F)(F)F (stereo not shown) [Example 139] | –
19 | 1 nM | 59 nM | – | – | CC1(c2cccc(-c3nc(O)nc(-c4cc(CNC(=O)C5(CF)CCCC5)ccc4Cl)n3)c2)CC1 [Example 94] | –
20 | 7.7 nM | 2.1 nM | – | – | CCC[C@@H](C)Oc1ccc(-c2nc(O)nc(-c3cc(CNC(=O)C(CC)(OC)C(F)(F)F)ccc3Cl)n2)cn1 (single isomer, unassigned) [Example 142] | –
21 | 3.9 nM | – | – | 1.6 nM | CCC[C@@H](C)Oc1ccc(-c2nc(O)nc(-c3cc(CNC(=O)C(CC)(OC)C(F)(F)F)ccc3Cl)n2)cn1 (single isomer, unassigned) [Example 143] | –
22 | 1.8 nM | > 30 nM | – | – | CC(C)c1cccc(-c2nc(O)nc(-c3cc(CNC(=O)C4(C(F)F)CCCCCC4)ccc3Cl)n2)c1 [Example 120] | 43%
23 | 3.7 nM | 2.7 nM | – | – | CCC[C@H](C)Oc1ccc(-c2nc(O)nc(-c3cc(CNC(=O)C4(C(F)F)CCCC4)ccc3Cl)n2)cn1 [Example 110] | –
24 | 1.2 nM | 7.2 nM | – | – | CCC(CC)(C(=O)NCc1ccc(Cl)c(-c2nc(O)nc(-c3cccc(C(C)C)c3)n2)c1)C(F)F [Example 116] | –
25 | 1.8 nM | 32 nM | – | – | CCC(CC)(OC)C(=O)NCc1ccc(Cl)c(-c2nc(O)nc(-c3cccc(C(C)C)c3)n2)c1 [Example 75] | –
26 | 14 nM | 3.8 nM | – | – | CCC[C@H](C)Oc1ccc(-c2nc(O)nc(-c3cc(CNC(=O)C4(CF)CCCCCC4)ccc3Cl)n2)cn1 [Example 141] | –
27 | 1.5 nM | 15 nM | – | – | CCC[C@H](C)Oc1ccc(-c2nc(O)nc(-c3cc(CNC(=O)C(C)(C)CF)ccc3Cl)n2)cn1 [Example 105] | –
